Measurements published in patent US9056835B2, “LPA2 receptor-specific benzoic acid derivatives” (University of Tennessee Research Foundation, priority 2012, dated 2015).

Target: T1, LPA4 (Homo sapiens, UniProt Q99677)
T1 construct: expressed in transfected cells
Assay: LPA receptor-mediated Ca2+ mobilization assay, LPA4
Format: cell-based
Details: for EC50: agonist, Ca2+ mobilization
Description: Similarity searches were performed separately using each fingerprint to quantitate similarity. Hits meeting the 80% similarity threshold from each search were ranked based on the Tanimoto coefficient measure of similarity to a target molecule NSC12404, and the top 75 unique hits from each fingerprint search were selected for further analysis. The 225 compounds selected for further analysis were clustered based on Tanimoto coefficients calculated using Molecular ACCess System-key fingerprints (MACCS keys) and evaluated using the diversity subset function implemented in MOE. This selected a diverse subset of 27 compounds for biological evaluation by choosing the middle compounds in each cluster. These 27 compounds were tested in Ca^2+ mobilization assays at a concentration of 10 μM using stable cell lines individually expressing LPA2 and also in vector-transfected control cells. Hits activating LPA2 were further tested using cells expressing the other established and putative LPA GPCRs. […] They arbitrarily selected GRI977143 for further characterization in cell-based assays.
J Biol Chem (2009) 284(25): 17304-17319). […] The cells were loaded with Fura-2-acetoxymethyl esther (Fura-2/AM) in Krebs buffer containing 0.01% pluronic acid for 30 min and rinsed with Krebs buffer before measuring Ca^2+ mobilization. The ratio of peak emissions at 510 nm after 2 min of ligand addition was determined for excitation wavelengths of 340 nm/380 nm. All samples were run in quadruplicate. […] The half maximally effective concentration (EC50), and inhibitory constant (Ki) values were calculated by fitting a sigmoid function to dose-response data points using KaleidaGraph software (version 4.1, Synergy Software; […]).
Mouse embryonic fibroblast (MEF) cells were isolated from E13.5 LPA1&2 double knockout (DKO) embryos. MEFs were transduced with empty vector or LPA2-containing lentiviruses and selected with 1.5 μg/ml puromycin. Cells were maintained in Dulbecco's modified Eagle medium (DMEM) supplemented with 10% (V/V) fetal bovine serum (FBS), 2 mM L-glutamine, 100 U/mL penicillin, and 100 μg/mL streptomycin. Serum-free medium contained 0.1% (W/V) BSA in DMEM. The rat intestinal epithelial cell line 6 (IEC-6) was obtained from the American Type Culture Collection (Rockville, Md.) at passage 13; passages 16-21 were used in all experiments. IEC-6 cells were maintained in a humidified 37° C. incubator in an atmosphere of 90% air and 10% CO2. Growth medium consisted of DMEM supplemented with 5% heat inactivated FBS, 10 μg/mL insulin, and 50 μg/mL gentamycin. The composition of the serum-starvation medium was the same as that of the full growth medium except that it contained no FBS. The McArdle rat hepatoma cell line (RH7777) stably expressing LPA2 receptors was a gift from Dr. Fumikazu Okajima (Gunma University, Maebashi, Japan). RH7777 cells stably expressing LPA1 or LPA3 receptors were generated in-house and had been characterized earlier. Wild type and LPA receptor (LPAR) stably transfected RH7777 cells were grown in DMEM supplemented with 10% FBS and 2 mM L-glutamine in the presence of 250 μg/ml G418. Chinese hamster ovary (CHO) cells stably expressing either vector or LPA4 receptor were a kind gift from Dr. Takao Shimizu (Tokyo University; Tokyo, Japan). Cells were cultured in Ham's F12 medium containing 10% FBS, 2 mM L-glutamine, and 350 μg/ml G418. Rat neuroblastoma cells (B103) were transduced with the lentivirus harboring wild type of FLAG-LPA5 and selected with puromycin to establish the stable cell lines. The stable cells were maintained in DMEM supplemented with 10% FBS and 0.4 μg/ml puromycin. GPR87- and P2Y10-expressing CHO cells and vector-transfected control cells were a gift from Dr. Norihisha Fujita (Ritsumeikan University; Shiga, Japan).

T1 sequence (Q99677 whole entry, species assumed): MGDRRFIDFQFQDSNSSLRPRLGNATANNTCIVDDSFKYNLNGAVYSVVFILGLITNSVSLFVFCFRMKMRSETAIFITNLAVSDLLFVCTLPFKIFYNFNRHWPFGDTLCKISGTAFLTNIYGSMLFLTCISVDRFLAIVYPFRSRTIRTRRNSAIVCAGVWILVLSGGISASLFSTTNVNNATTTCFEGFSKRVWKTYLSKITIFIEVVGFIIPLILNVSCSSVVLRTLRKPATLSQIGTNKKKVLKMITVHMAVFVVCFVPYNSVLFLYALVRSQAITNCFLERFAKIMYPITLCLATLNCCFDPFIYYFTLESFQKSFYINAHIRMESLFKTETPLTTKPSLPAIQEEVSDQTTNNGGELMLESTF

Compound	inhibition of LPA4 Ca2+ response (10 μM, ~EC75 LPA 18:1)	LPA4 Imax (%) (inhibition by 10 μM compound of ~EC75 LPA 18:1 Ca2+ response)	EC50 [µM]
O=C(O)c1cc(Cl)c(Cl)cc1C(=O)Nc1ccc2c(c1)C(=O)c1ccccc1-2 [Compound H2L5547924]	partially inhibited	51	
O=C(O)c1ccccc1C(=O)Nc1ccc2c(c1)C(=O)c1ccccc1C2=O [Compound H2L5828102]			> 10
O=C(O)c1ccccc1SCCCN1C(=O)c2cccc3cccc(c23)C1=O [GRI977143]			> 10
O=C(O)c1ccccc1C(=O)Nc1ccc2c(c1)C(=O)c1ccccc1-2 [NSC12404]			> 10
octadecenyl thiophosphate [OTP]			2
